# Results taken from patent publication US20160362478A1, “CD4-MIMETIC SMALL MOLECULES SENSITIZE HUMAN IMMUNODEFICIENCY VIRUS TO VACCINE-ELICITED ANTIBODIES” (priority 2014, published 2016).
# What was measured:
# HIV-1 JR-FL [1] = assay: Cold inactivation of recombinant virus on ice; format: cell-based; details: compound 50 μM
# Method: Cold Inactivation. […] Cf2Th-CCR5-CD4 target cells were seeded at a density of […] cells/well in a 96-well luminometer-compatible tissue-culture plate (PerkinElmer) 24 h before infection. The mixtures were then added to target cells and incubated for 48 h at 37° C.; after this time, the medium was removed from each well, and the cells were lysed by the addition of 30 μL passive lysis buffer (Promega) and three freeze-thaw cycles. An EG&G Berthold Microplate Luminometer LB 96V was used to measure the luciferase activity of each well after the addition of 100 μL of luciferin buffer (15 mM MgSO4, 15 mM KPO4, pH 7.8, 1 mM ATP, and 1 mM dithiothreitol) and 50 μL of 1 mM Firefly D-Luciferin Free Acid 99% (Prolume).
# HIV-1 JR-FL [2] = assay: Sensitization assay: antibody neutralization of HIV-1 JR-FL with CD4-mimetic compound; format: cell-based; details: for sensitization of HIV-1 JR-FL to neutralization by 17b and 39F antibodies: sub-neutralizing compound concentrations
# Method: (§1) Infection by single-round luciferase viruses. Cf2Th-CCR5-CD4 target cells were seeded at a density of 6×10^3 cells/well in 96-well luminometer-compatible tissue culture plates (PerkinElmer) 24 h before infection. […] In the case of sensitization assays, a constant concentration of compounds was incubated with virus for 30 min at 37° C.; then, 17b or other antibodies (0-100 μg/mL) were added to the virus/compound mixture and incubated for an additional 30 min at 37° C. The mixtures were then added to the target cells and incubated for 48 h at 37° C.; after this time, the medium was removed from each well, and the cells were lysed by the addition of 30 μL passive lysis buffer (Promega) and three freeze-thaw cycles. An EG&G Berthold Microplate Luminometer LB 96V was used to measure the luciferase activity of each well after the addition of 100 μL of luciferin buffer (15 mM MgSO4, 15 mM KPO4, pH 7.8, 1 mM ATP, and 1 mM dithiothreitol) and 50 μL of 1 mM Firefly D-Luciferin Free Acid 99% (Prolume).
# The ability of (+)-DMJ-I-228 and (+)-DMJ-II-121 to each sensitize HIV-1 to neutralization by antibodies was examined using the single-round infection of Cf2Th-CD4/CCR5 cells by recombinant HIV-1 encoding firefly luciferase. The recombinant viruses were pseudotyped with the HIV-1 Envs derived from the primary R5 HIV-1 JR-FL and YU2 isolates. Recombinant HIV-1 pseudotyped with the amphotropic murine leukemia virus (A-MLV) Env was used as a control for specificity. HIV-L neutralization was examined in the presence of sub-neutralizing concentrations of the CD4-mimetic compounds and different concentrations of monoclonal antibodies. […] The 17b antibody recognizes a well-conserved CD4i epitope on the HIV-1 gp120 core that is not formed or exposed in the unliganded Env of primary HIV-1 strains. The 39F antibody recognizes a conformation-dependent epitope in the gp120 V3 region of primary R5 HIV-1. […] and (+)-DMJ-II-121 each render primary HIV-1 isolates sensitive to neutralization by monoclonal antibodies directed against CD4i and V3 epitopes on the gp120 Env.
# HIV-1 JR-FL [3] = assay: Infection of Cf2Th-CD4/CCR5 cells by single-round luciferase virus with HIV-1 JR-FL Env; format: cell-based; details: for IC50: Human immunodeficiency virus 1, Cf2Th-CD4/CCR5, read-out: IC50, inhibition of HIV-1 JR-FL infection; for inhibition of HIV-1 JR-FL virus relative to parental NBD-556: cells expressing CD4 and CCR5
# Method: (§2) Recombinant luciferase viruses: 293T human embryonic kidney cells were co-transfected with plasmids expressing the pCMVΔP1Δenv HIV-1 Gag-Pol packaging construct, the R5 YU2 envelope glycoproteins, or the envelope glycoprotein of the control amphotropic murine leukemia virus (A-MLV), and the firefly luciferase-expressing vector at a DNA ratio of 1:1:3 μg using the Effectene transfection reagent (Qiagen). Co-transfection produced single-round, replication-defective viruses. The virus-containing supernatants were harvested 36-40 h after transfection, spun, aliquoted, and frozen at −80° C. until further use. The reverse transcriptase (RT) activities of all viruses were measured as described in Rho, H. M., et al. Virology 1981, 112, 355-360.
# as §1
# The ability of selected CD4-mimetic compounds to inhibit HIV-1 entry was examined. […] Recombinant HIV-1 expressing the firefly luciferase gene was pseudotyped with different envelope glycoproteins, either HIV-1 JR-FL Env or, as a control, the amphotropic murine leukemia virus (A-MLV) envelope glycoproteins. The recombinant viruses were incubated with cells expressing CD4 and CCR5 in the presence of different concentrations of the compounds.
# HIV-1 JR-FL [4] = assay: Sensitization of HIV-1 JR-FL to neutralization by rabbit antisera elicited by gp120 cores; format: cell-based
# Method: as §1
# Animal inoculations and analysis of antisera. Approximately 12-week-old female New Zealand White rabbits were housed at the AAALAC-accredited facilities at Bioqual (Rockville, Md.) under specific pathogen-free conditions. At 4-week intervals, rabbits were inoculated intramuscularly with […] of affinity-purified protein formulated in GlaxoSmithKline Adjuvant System AS01B by splitting the protein-adjuvant mix in the two hind legs. Serum was prepared, heat inactivated, and assessed for anti-gp120 ELISA titers and the presence neutralizing antibodies.
# (+)-DMJ-I-228 and (+)-DMJ-II-121 were examined to determine if they could sensitize HIV-1 to neutralization by antisera elicited by an Env immunogen. […] These stabilized gp120 cores were derived from the laboratory-adapted HIV-1 HXBc2 strain and lack the V1, V2, and V3 variable regions. […]
# HIV-1 YU2 [5] = assay: Sensitization assay: antibody neutralization of HIV-1 YU2 with CD4-mimetic compound; format: cell-based; details: sub-neutralizing compound concentrations
# Method: as §1
# The ability of (+)-DMJ-I-228 and (+)-DMJ-II-121 to each sensitize HIV-1 to neutralization by antibodies was examined using the single-round infection of Cf2Th-CD4/CCR5 cells by recombinant HIV-1 encoding firefly luciferase. The recombinant viruses were pseudotyped with the HIV-1 Envs derived from the primary R5 HIV-1 JR-FL and YU2 isolates. […]
# HIV-1 = assay: Inhibition of HIV-1 infection (overview statement); format: cell-based; details: Human immunodeficiency virus 1, read-out: IC50, inhibition of HIV-1 infection
# [6] = system: HIV-1 transmitted/founder viruses; assay: Sensitization of transmitted/founder viruses to 3CC gp120 core antisera; format: cell-based
# Method: as §1
# Animal inoculations and analysis of antisera. Approximately 12-week-old female New Zealand White rabbits were housed at the AAALAC-accredited facilities at Bioqual (Rockville, Md.) under specific pathogen-free conditions. […] Serum was prepared, heat inactivated, and assessed for anti-gp120 ELISA titers and the presence neutralizing antibodies. […]
# [7] = target: wild-type HIV-1 YU2 gp120 glycoprotein (Human immunodeficiency virus type 1 group M subtype B, UniProt P35961); assay: Isothermal titration calorimetry, binding to gp120; details: ITC, 25° C.
# Method: Isothermal Titration Calorimetry. Thermodynamic parameters for the binding of the different inhibitors to gp120 were obtained by isothermal titration calorimetry (ITC) using a VP-ITC microcalorimeter from MicroCal/GE Healthcare (Northampton, Mass., USA). The titrations were performed at 25° C. by injecting 10 μL aliquots of inhibitor solution into the calorimetric cell (volume ˜1.4 mL) containing gp120 at a concentration of 2 μM. […] In all titration experiments, gp120 and the different inhibitors were equilibrated with PBS, pH 7.4, with 2% DMSO. The heat evolved upon each injection of inhibitor was obtained by integration of the calorimetric signal. The heat associated with inhibitor binding to gp120 was obtained by subtracting the heat of dilution from the heat of reaction. The enthalpy change (ΔH) and association constant (Ka=[…]) were obtained by nonlinear regression of the data.
# The thermodynamics of the binding of each compound to the wild-type HIV-1 YU2 gp120 glycoprotein was analyzed by isothermal titration calorimetry.
# [8] = system: HIV-1 transmitted/founder viruses; assay: Inhibition and 17b sensitization of transmitted/founder viruses; format: cell-based
# Method: as §1
# The ability of (+)-DMJ-II-121 to sensitize HIV-1 transmitted/founder viruses to neutralization by the 17b antibody (FIG. 8A) and antisera elicited by the 3CC gp120 core immunogen (FIG. 8B) was examined. In these experiments, the recombinant viruses were pseudotyped with the HIV-1 Envs derived from HIV-1 transmitted/founder viruses. Recombinant HIV-1 pseudotyped with the primary R5 HIV-1 JR-FL and the amphotropic murine leukemia virus (A-MLV) Envs served as positive and negative controls, respectively. HIV-1 neutralization was examined in the presence of sub-neutralizing concentrations of (+)-DMJ-II-121 and different concentrations of the 17b antibody or sera.
# HIV-1 YU2 [9] = assay: Infection of Cf2Th-CD4/CCR5 cells by single-round luciferase virus with HIV-1 YU2 Env; format: cell-based; details: Human immunodeficiency virus 1, Cf2Th-CD4/CCR5, read-out: IC50, inhibition of HIV-1 YU2 infection
# Method: as §2
# (§3) Infection by single-round luciferase viruses. Cf2Th-CCR5-CD4 target cells were seeded at a density of 6×10^3 cells/well in 96-well luminometer-compatible tissue culture plates (PerkinElmer) 24 h before infection. […] In the case of sensitization assays, a constant concentration of compounds was incubated with virus for 30 min at 37° C.; then, 17b or other antibodies (0-100 μg/mL) were added to the virus/compound mixture and incubated for an additional 30 min at 37° C. […]
# A-MLV = assay: Infection by control virus pseudotyped with A-MLV envelope glycoproteins; format: cell-based, amphotropic murine leukemia virus; details: at 100 μM
# Method: as §2, §3
# [10] = target: HIV-1 JR-FL envelope glycoproteins (Env) (HIV-1 JR-FL); assay: cell-based or functional assay
# [11] = target: HIV-1 YU2 envelope glycoproteins (Env) (HIV-1 YU2) (UniProt P35961); assay: cell-based or functional assay
# [12] = system: primary CD4 T cells infected with transmitted/founder (T/F) viruses and their 6-month counterparts; assay: Recognition of primary CD4 T cells infected with primary HIV-1 by HIV-1+ sera; format: cell-based, human; details: data not shown
Compound,half-life of HIV-1 JR-FL infectivity on ice in the presence of the compound (HIV-1 JR-FL [1]) [h],IC50 (HIV-1 JR-FL [3]) [µM],inhibition of HIV-1 JR-FL virus relative to parental NBD-556 (HIV-1 JR-FL [3]),sensitization of HIV-1 JR-FL to neutralization by 17b and 39F antibodies (HIV-1 JR-FL [2]),sensitization of HIV-1 YU2 to neutralization by 17b and 39F antibodies (HIV-1 YU2 [5]),IC50 (HIV-1) [µM],ability to bind monomeric gp120 relative to NBD-556 [7],IC50 (HIV-1 YU2 [9]) [µM],inhibition of A-MLV infection (A-MLV),"neutralization of pseudotyped virus, no CD4-mimetic compound [10] [µg/mL]","neutralization of pseudotyped virus, no CD4-mimetic compound [11] [µg/mL]",also measured
"CC1(C)CC(NC(=O)C(=O)Nc2ccc(Cl)cc2)CC(C)(C)N1 [NBD-556, reference compound]",15.7,,,,,,,,,,,effect on neutralization of HIV-1 JR-FL by the 17b antibody (HIV-1 JR-FL [2]): minimally affected; effect on neutralization of HIV-1 JR-FL by the 39F antibody (HIV-1 JR-FL [2]; only at high concentrations): weakly increase
N=C(N)NC[C@H]1Cc2ccccc2[C@@H]1NC(=O)C(=O)Nc1ccc(Cl)c(F)c1 [(+)-DMJ-II-121],1.9,27.8,specifically inhibited the HIV-1 JR-FL virus with an improved potency,each sensitized HIV-1 YU2 and JR-FL to neutralization by the 17b and 39F antibodies,each sensitized HIV-1 YU2 and JR-FL to neutralization by the 17b and 39F antibodies,2.3,significant improvement in the ability to bind monomeric gp120,3.6,Neither (+)-DMJ-I-228 nor (+)-DMJ-II-121 inhibited A-MLV infection,,,"sensitization of HIV-1 JR-FL to neutralization by sera from rabbits immunized with 3CC or 4CC stabilized gp120 cores (HIV-1 JR-FL [4]): sensitized HIV-1 JR-FL to neutralization; sera elicited by non-stabilized V3S core that neutralized HIV-1 JR-FL after incubation with compound (HIV-1 JR-FL [4]): None of the rabbit sera; sera from rabbits immunized with the 2CC gp120 core that neutralized HIV-1 JR-FL only in the presence of compound (HIV-1 JR-FL [4]; five sera): Three of the five sera; sensitivity of TD12 and B5 transmitted/founder viruses to 3CC antisera in the presence of compound [6]: increased sensitivity to neutralization by 3CC antisera; number of transmitted/founder viruses sensitive to compound inhibition but not sensitized to 17b neutralization [8]: Three; sensitivity of transmitted/founder virus TA5 to the compound alone ([8]; TA5 virus): did not exhibit sensitivity; number of 17b-resistant transmitted/founder HIV-1 sensitized to neutralization by the 17b antibody ([8]; of ten 17b-resistant viruses, 50 μM compound): six"
39F antibody,,,,,,,,,,> 100,> 100,
17b antibody,,,,,,,,,,> 100,> 100,"IC50, inhibition of HIV-1 JR-FL entry into cells co-expressing CD4 and CCR5, in the presence of 30 µM (+)-DMJ-II-121 [10]: 0.6 µg/mL"
N=C(N)N[C@H]1Cc2ccccc2[C@@H]1NC(=O)C(=O)Nc1ccc(Cl)c(F)c1 [(+)-DMJ-I-228],9.1,86.9,specifically inhibited the HIV-1 JR-FL virus with an improved potency,each sensitized HIV-1 YU2 and JR-FL to neutralization by the 17b and 39F antibodies,each sensitized HIV-1 YU2 and JR-FL to neutralization by the 17b and 39F antibodies,22.9,significant improvement in the ability to bind monomeric gp120,46.7,Neither (+)-DMJ-I-228 nor (+)-DMJ-II-121 inhibited A-MLV infection,,,recognition of cells infected with four primary viruses by HIV-1+ sera [12]: significantly enhance recognition
